{"source": "patent US11098077B2", "about": "“Locked nucleic acid cyclic dinucleotide compounds and uses thereof” (CHINOOK THERAPEUTICS, INC., priority 2016, dated 2021)", "key": {"hSTING REF allele": {"molecular_target": "T1, hSTING REF allele (Homo sapiens, UniProt Q86WV6)", "T1 construct": "DNA encoding amino acids 140-379 (amino acid numbering corresponding to Swiss Prot Q86WV6); 6xHIS (N, cleaved yes); SUMO (N, cleaved yes); made in house; host or cells: Rosetta2 (DE3) E. coli", "T1 sequence (Q86WV6 140-379)": "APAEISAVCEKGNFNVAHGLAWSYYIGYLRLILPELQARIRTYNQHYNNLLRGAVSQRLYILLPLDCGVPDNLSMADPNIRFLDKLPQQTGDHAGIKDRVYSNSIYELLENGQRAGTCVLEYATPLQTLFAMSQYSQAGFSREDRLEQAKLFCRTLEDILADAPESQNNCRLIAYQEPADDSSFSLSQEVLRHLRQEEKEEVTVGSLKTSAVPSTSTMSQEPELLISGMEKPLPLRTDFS", "experiment": "Differential scanning fluorometry (DSF) binding to purified STING AA140-379, REF allele", "settings": "DSF; ligand 1 mM; 1 mg/ml STING AA140-379", "description": "(§1) Cells were grown in lysogeny broth at 37° C. until a […] absorbance of 0.6 was reached. […] Cell pellets were re-suspended on ice in a buffer containing 50 mM Tris hydrochloride (Tris-HCl) pH 7.5, 500 mM sodium chloride (NaCl), 20 mM imidazole, 10% glycerol, 1 mM tris(2-carboxyethyl)phosphine hydrochloride (TCEP) and protease inhibitor tablet (Pierce) (Buffer A). Cells were lysed using an S-450D sonifier (Emmerson industrial) on ice. […] Protein was aliquoted, flash frozen in liquid nitrogen and stored at −80° C. until use.\n(§2) The protein is heated in the presence of a dye that binds to and fluoresces in hydrophobic environments. The protein is thermally denatured by heating resulting in increased dye binding to the unfolded protein and fluorescence. The temperature midpoint (Tm) of a proteins denaturation is established by calculating the half maximal value of the denaturation curve. The temperature midpoint of the protein in the presence of a ligand is directly related to the affinity of the ligand for the protein and therefore its ability to stabilize the protein at higher temperatures.\n(§3) Each of wild type hSTING, HAQ allele hSTING and REF allele hSTING were used with each of the reference compounds and compounds of the invention as listed in Table 4. Samples were placed in hard shell PCR plate (Bio-Rad). The fluorescence as a function of temperature was recorded in a CFX 96 real time PCR machine (Bio-Rad) reading on the HEX channel, excitation 450-490, emission 560-580 nm. The temperature gradient was from 15-80° C. ramping 0.5° C. per 15 seconds and recording every 0.5° C. After subtraction of the background signal from a sample lacking protein and ligand. The midpoint temperature (Tm) was calculated by fitting the curves of the fluorescence as a function of temperature to a Boltzmann sigmoidal function (Graph Pad Prism)."}, "[1]": {"test_system": "SIY-specific CD8+ T cells in splenocytes", "experiment": "FACS of splenocytes with SIY pentamer (SIY+ CD8+ T cells)", "format": "in vivo, C57BL/6 mice", "settings": "day 7 post IT injection", "description": "(§4) Tumors were measured twice weekly.\nData analysis was conducted with FlowJo software (Tree Star)."}, "[2]": {"test_system": "serum TNF-α, IFN-γ, IL-6, MCP-1", "experiment": "Systemic serum pro-inflammatory cytokines by Mouse Inflammation Cytometric Bead Array", "settings": "from serum cytokines six hours post-IT injection", "quoted_text": "(§5) To assess the ability of the LNA-CDN molecules to promote anti-tumor immunity in aggressive murine tumor models, 6-8 week old female C57BL/6 mice (8 mice per group) were implanted with B16.SIY melanoma tumor cells (1×10^6 cells in 100 μL PBS). […] Treatments began when tumors reached a volume of approximately 100 mm^3, on day 9 post tumor implantation. The compounds were administered by a single subcutaneous injection into the center of the tumor (IT) using a 27 gauge needle. Tumors were measured twice weekly."}, "hSTING HAQ allele": {"molecular_target": "T2, hSTING HAQ allele (Homo sapiens, UniProt Q86WV6, G230A/H232R/R293Q)", "T2 construct": "DNA encoding amino acids 140-379 (amino acid numbering corresponding to Swiss Prot Q86WV6); 6xHIS (N, cleaved yes); SUMO (N, cleaved yes); made in house; host or cells: Rosetta2 (DE3) E. coli", "T2 sequence (Q86WV6 140-379 G230A/H232R/R293Q limits assumed)": "as the sequence (Q86WV6 140-379) above, with G91A, H93R, R154Q counted along it", "experiment": "Differential scanning fluorometry (DSF) binding to purified STING AA140-379, HAQ allele", "settings": "ligand 1 mM, 1 mg/ml STING AA140-379", "description": "as §1, §2, §3"}, "[3]": {"test_system": "serum TNF-α, IFN-γ, IL-6, MCP-1", "settings": "mouse, in vivo", "quoted_text": "as §5"}, "[4]": {"test_system": "SIY-specific T cells in splenocytes", "experiment": "IFNγ ELISPOT of splenocytes stimulated with SIY peptide", "format": "in vivo, C57BL/6 mice", "settings": "day 7 post IT injection"}, "hSTING WT": {"molecular_target": "T3, hSTING WT (Homo sapiens, UniProt Q86WV6, H232R)", "T3 construct": "DNA encoding amino acids 140-379 (amino acid numbering corresponding to Swiss Prot Q86WV6); 6xHIS (N, cleaved yes); SUMO (N, cleaved yes); made in house; host or cells: Rosetta2 (DE3) E. coli", "T3 sequence (Q86WV6 140-379 H232R limits assumed)": "as the sequence (Q86WV6 140-379) above, with H93R counted along it", "experiment": "Differential scanning fluorometry (DSF) binding to purified STING AA140-379, wild type", "settings": "DSF; ligand 1 mM; 1 mg/ml STING AA140-379", "description": "as §1, §2, §3"}, "[5]": {"test_system": "B16.SIY melanoma tumor cells", "experiment": "B16.SIY melanoma tumor model, intra-tumoral injection (Example 13)", "format": "in vivo, C57BL/6 mice", "description": "as §4"}, "[6]": {"molecular_target": "T4, hSTING HAQ allele in THP1-Dual cells (Homo sapiens, UniProt Q86WV6, G230A/H232R/R293Q/R71H)", "T4 construct": "a human monocyte cell line containing the hSTING HAQ allele; host or cells: THP1-Dual cells", "T4 sequence (Q86WV6 whole entry R71H/G230A/H232R/R293Q)": "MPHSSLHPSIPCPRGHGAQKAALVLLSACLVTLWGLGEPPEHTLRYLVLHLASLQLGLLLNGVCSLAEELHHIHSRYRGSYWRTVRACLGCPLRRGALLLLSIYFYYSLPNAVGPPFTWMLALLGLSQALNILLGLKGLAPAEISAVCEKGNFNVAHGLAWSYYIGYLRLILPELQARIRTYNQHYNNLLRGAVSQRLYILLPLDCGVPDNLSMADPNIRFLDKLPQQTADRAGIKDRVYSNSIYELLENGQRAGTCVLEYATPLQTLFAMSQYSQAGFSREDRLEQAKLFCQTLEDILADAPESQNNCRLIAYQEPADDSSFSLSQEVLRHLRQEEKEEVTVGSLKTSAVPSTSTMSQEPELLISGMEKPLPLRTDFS", "experiment": "THP1-Dual IRF-3 inducible secreted luciferase reporter assay (type I interferon activation), without digitonin", "format": "cell-based", "description": "After 30 minutes, cells were washed and fresh RPMI media containing 10% FBS was added, and cells were incubated at 37° C. with 5% CO2 Cell culture supernatants from each sample were collected after overnight incubation, and 10 μL of the cell culture supernatants was added to 50 μL QUANTI-Luc reagent (Invivogen). Type I interferon activation was determined by measuring secreted luciferase levels on a SpectraMax M3 spectrophotometer (Molecular Devices)."}}}
{"smiles": "Nc1ncnc2c1ncn2[C@@H]1O[C@@H]2CO[P@@](=O)(S)O[C@H]3[C@H]4OC[C@]3(CO[P@](=O)(S)O[C@@H]1[C@@H]2O)O[C@H]4n1cnc2c(N)ncnc21", "note": "[Compound 10c]", "values": [{"measurement": "hSTING Tm Shift REF", "setting": "hSTING REF allele", "result": 5.0, "unit": "°C"}, {"measurement": "range of dose responses (therapeutic window for anti-tumor immunity)", "setting": "[1]", "result": "a broader range of dose responses"}, {"measurement": "safety profile compared to reference compound 2′3′-RR-(A)(A)", "setting": "[2]", "result": "superior safety profile"}, {"measurement": "hSTING Tm Shift HAQ", "setting": "hSTING HAQ allele", "result": 10.4, "unit": "°C"}, {"measurement": "systemic cytokines compared with 2′3′-RR-(A)(A)", "setting": "[3]", "result": "significantly lower systemic cytokines than 2′3′-RR-(A)(A)"}, {"measurement": "IFNγ ELISPOT T cell responses compared to reference compound 2′3′-RR-(A)(A)", "setting": "[4]; 1 μg dose", "result": "comparable responses"}, {"measurement": "IFNγ ELISPOT responses compared to HBSS", "setting": "[4]; all doses tested (0.1, 1, 10, 100 μg)", "result": "significantly higher responses"}, {"measurement": "range of efficacy (doses giving IFNγ ELISPOT response)", "setting": "[4]", "result": "an even broader range of efficacy than Compound 5a"}, {"measurement": "hSTING Tm Shift WT", "setting": "hSTING WT", "result": 6.5, "unit": "°C"}, {"measurement": "tumor efficacy compared to reference compound 2′3′-RR-(A)(A)", "setting": "[5]; single IT injection, 1 μg dose", "result": "comparable tumor efficacy as compared to the reference compound 2′3′-RR-(A)(A)"}, {"measurement": "tumor inhibition (tumor volume) compared to HBSS", "setting": "[5]; single IT injection, 0.1, 1, 10 and 100 μg", "result": "potent tumor inhibition as compared to HBSS, in a dose-dependent manner"}, {"measurement": "EC50", "setting": "[6]", "result": "> 150", "unit": "µM"}]}
